Experiments:
[1] = system: A-549 (human lung carcinoma); settings: A-549 cell line
[2] = system: UMUC3 (human bladder carcinoma); settings: UMUC3 cell line
[3] = system: HT-29 (human colon adenocarcinoma); settings: HT-29 cell line
[4] = system: PC-3 (human prostate adenocarcinoma); settings: PC-3 cell line
[5] = system: PACA2 (human pancreatic adenocarcinoma); settings: PACA2 cell line
[6] = system: A4982LM (human kidney carcinoma); settings: A4982LM cell line
[7] = system: MDA231 (human breast carcinoma); settings: MDA231 cell line
[8] = system: FDIGROV (human ovarian carcinoma); settings: FDIGROV cell line

Row | SMILES | Cytotoxic activity ED50, A-549 [1] [µg/mL] | Cytotoxic activity in words, A-549 [1] | Cytotoxic activity ED50, UMUC3 [2] [µg/mL] | Cytotoxic activity ED50, HT-29 [3] [µg/mL] | Cytotoxic activity in words, HT-29 [3] | Cytotoxic activity ED50, PC-3 [4] [µg/mL] | Cytotoxic activity in words, PC-3 [4] | Cytotoxic activity ED50, PACA2 [5] [µg/mL] | Cytotoxic activity ED50, A4982LM [6] [µg/mL] | Cytotoxic activity in words, A4982LM [6] | Cytotoxic activity ED50, MDA231 [7] [µg/mL] | Cytotoxic activity ED50, FDIGROV [8] [µg/mL] | ED50, FDIGROV [8] [µg/mL]
1 | Cc1c(C)[n+](Cc2ccccc2)c(C)n1Cc1ccccc1.[Cl-] [Compound 2, 1,3-bis(phenylmethyl)-2,4,5-trimethyl-1H-imidazlium chloride] | >10 | inactive | 6.47 | >10 | inactive | >10 | inactive | 1.38 | >10 | inactive | 1.66 | 5.26 | 5260
2 | Cc1c(C)[n+](Cc2ccccc2)cn1Cc1ccccc1.[Cl-] [Compound 1, 1,3-bis(phenylmethyl)-4,5-dimethyl-1H-imidazlium chloride] | >10 | inactive | >10 | >10 | inactive | >10 | inactive | >10 | >10 | inactive | >10 | 7.39 | 7390
